In series [1] the test system is experimental dog model of OA. The note with it: cited from earlier work.
A further series has as its system PGE2. Briefly: PGE2 measurement in synovial fluid of OA dogs (EIA). Type of series: in vivo, dog. The note with it: 2.5 and 5 mg/kg/day; placebo 652.8±149.9 pg/ml. On the procedure:
(§1) The dogs were randomly separated into 3 treatment groups. Group 1 (n=7 dogs) was made up of dogs that received placebo (encapsulated methylcellulose) treatment (OA dogs); Groups 2 and 3 (n=7 dogs per group) received encapsulated ML3000 twice daily for 8 weeks at total doses of 2.5 and 5 mg/kg, respectively, beginning the day following surgery. The medication was administered 7 days/week throughout the duration of the study. All dogs were killed 8 weeks after surgery.
Synovial fluid taken at the time of sacrifice was centrifuged (14000 g, 15 minutes, 4° C.), and supernatants used for PGE2 determination. The level of PGE2 was determined using a specific enzyme immunoassay (EIA) (Cayman Chemical, Ann Arbor, Mich.).

Series [2] in a line: Plasma ML3000 level after immediate release dosage forms. The class given is in vivo. The note with it: immediate release dosage form, for 8 hours.
Series [3] has as its system experimental osteoarthritis (OA) dog model. Description: Experimental OA dog model (ACL section), macroscopic grading of the knee. The class given is in vivo. To be noted: for reduction of size of cartilage lesions on tibial plateaus vs placebo: P<0.01; for width of osteophytes: mean±SEM, placebo 4.50±0.66, not significant; for osteophytes present (share of condyles): placebo 93%. As to the method:
(§2) Twenty-one adult crossbred dogs (2-3 years old), weighing 20-25 kg each, were used in this study. Surgical sectioning of the anterior cruciate ligament (ACL) of the right knee through a stab wound was performed on all dogs as previously described (5,6). Prior to surgery, the animals were anesthetized intravenously with pentobarbital sodium (25 mg/kg) and intubated. Following surgery, the dogs were kept at a housing farm where they were free to exercise in a large pen.
as §1
Immediately after killing, the right knee of each dog was dissected, placed on ice, and the synovial fluid aspirated. Each knee was examined by 2 independent, blinded observers (DVJ, JCF) for gross morphologic changes including the presence of osteophyte formation and cartilage lesions as previously described (5,6). The degree of osteophyte formation was graded by measuring the maximal width (mm) of the spur of each femoral condyle. The cartilage changes on the medial and lateral femoral condyles and tibial plateaus were graded separately under a dissecting microscope (Stereozoom; Bausch & Lomb, Rochester, N.Y.).
The area of the articular surface changes was measured and expressed in mm^2. The depth of erosion was graded on a scale of 0-4, as follows: 0=surface appears normal, 1=minimal fibrillation or a slight yellowish discoloration of the surface, 2=erosion extended into superficial or middle layers, 3=erosion extended into deep,layers, and 4=erosion extended to the subchondral bone.

Another series relates to rat adjuvant arthritis. To be noted: cited from earlier work.
Series [4] is described as follows: Clinical observation of dogs during 8 weeks of treatment. The note with it: all dogs of the 3 experimental groups. Type of series: in vivo. As to the method: as §2, §1
For series [5], the system named is carrageenan-induced paw edema. The note with it: rat; cited from earlier work.
For another series, the system named is LTB4. Description: LTB4 production in synovial explant culture of OA dogs (LPS, EIA). The class given is in vivo, dog. The note with it: both treated groups, explants with 1 μg/ml LPS; placebo 2.48±0.69 pg/mg tissue. As to the method: as §1
Representative specimens of synovial membrane from all dogs were aseptically dissected from underlying tissue. The specimens were rinsed several times in Dulbecco's Modified Eagle's Medium (DMEM; Gibco-BRL Life Technologies, Burlington, Ontario, Canada), and 150 mg of tissue incubated (duplicate) for 48 hours at 37° C. in a humidified atmosphere of 5% CO2/95% air in DMEM medium in the presence of 1 μg/ml lipopolysaccharide (LPS; Sigma-Aldrich Canada, Oakville, Ontario, Canada). The LTB4 was extracted from cultured synovium explants as follows: membranes were homogenized in EIA buffer (1 M phosphate, pH 7.4, containing 1% BSA, 4 M NaCl, 10 mM EDTA and 0.1% sodium azide) and centrifuged (30000 g, 20 minutes, 4° C.). Supernatants were collected and the levels of LTB4 determined using EIA (Cayman Chemical).

The subject of another series is interleukin-1β (IL-1β). Briefly: Immunohistochemistry, synovial membrane cell score for IL-1β in OA dogs. The class given is in vivo, dog. To be noted: 2.5 and 5 mg/kg/day. As to the method:
as §1
Cartilage and synovial membrane specimens were processed for immunohistochemical analysis as previously described (7,14). Briefly, specimens were fixed in 4% neutral buffered formalin for 24 hours, then embedded in paraffin. Sections (5 μm) of paraffin-embedded specimens were placed on Superfrost Plus slides (Fisher Scientific, Nepean, Ontario, Canada), deparaffinized in toluene, dehydrated in a graded series of ethanol, and preincubated with chondroitinase ABC (0.25 units/ml) in phosphate buffered saline (PBS; Sigma-Aldrich Canada) for 60 minutes at 37° C. […]
Synovial membrane. For synovial membrane analysis, a cell score of the different specimens was determined for each section using our published method (8). […] The percentage of cells staining positive for the specific antigen was evaluated in each field as described above for cartilage. […]

The subject of the next series is collagenase-1 (MMP-1). Briefly: Immunohistochemistry, chondrocyte cell score for collagenase-1 in cartilage of OA dogs. The class given is in vivo, dog. To be noted: condyles and plateaus, both doses, slightly more pronounced at highest dosage. As to the method:
as §1
Cartilage and synovial membrane specimens were processed for immunohistochemical analysis as previously described (7,14). Briefly, specimens were fixed in 4% neutral buffered formalin for 24 hours, then embedded in paraffin. […]
Cartilage. Quantification of the different antigens in cartilage was done using a published method (7,14). […] For each arthritic specimen, it was ensured prior to evaluation that an intact cartilage surface could be detected and used as a marker for validation of morphometric analysis. The total number of chondrocytes and the number of chondrocytes staining positive for the specific antigen were determined. The final results were expressed as the percentage of chondrocytes staining positive for the antigen (cell score) with the maximum score being 100%. […]

Series [6] has as its system experimental osteoarthritis (OA) dog model. Description: Experimental OA dog model, histologic grading of cartilage and synovial membrane. Type of series: in vivo. On the procedure:
as §2, §1
Histologic evaluation was performed on sagittal sections of cartilage from the lesioned areas of each femoral condyle and tibial plateau as described (7,8). Specimens were dissected, fixed in TissuFix #2 (Laboratoires Gilles Chaput, Montréal, Québec, Canada), and embedded in paraffin for histologic evaluation. Serial sections (5 μm) were stained with Safranin O. The severity of the OA lesions was graded on scale of 0-14, by 2 independent observers (DJ, JF), using the histologic/histochemical scale of Mankin et al (12). This scale evaluates the severity of OA lesions based on the loss of staining with Safranin O (scale 0-4), cellular changes (scale 0-3), invasion of the tidemark by blood vessels (scale 0-1), and structural changes (scale 0-6, where 0=normal cartilage structure and 6=erosion of the cartilage down to the subchondral bone). This scoring system was based on the most severe histologic changes within each cartilage section.
Representative specimens of synovial membrane from the gutters of the medial and lateral knee compartments were also dissected from underlying tissue. The specimens were fixed in TissuFix #2, embedded in paraffin, sectioned (5 μm), and stained with hematoxylin and eosin. Two synovial membrane specimens from each compartment were examined, serial selections were made throughout the specimens, and each one scored separately. The highest score from each specimen was recorded. The average was calculated and considered as a unit for the whole knee. The severity of synovitis was graded on a scale of 0-10 (13) by 2 independent observers (DVJ, JCF) adding the scores for 3 histologic criteria: synovial lining cell hyperplasia (scale 0-2), villous hyperplasia (scale 0-3), and degree of cellular infiltration by mononuclear and polymorphonuclear cells (scale 0-5).

For a further series, the system named is knee OA patients. To be noted: X-ray criteria, 5-year period; cited from earlier work.

Bounds are passed on as bounds.

`CC(=O)Oc1ccccc1C(=O)O` [ASA, acetylsalicylic acid]: in [1], the “effect on progression of experimental OA” value was “ineffective (10) or even demonstrated to accelerate cartilage damage”.

Consider `CC(C(=O)O)c1ccc2c(c1)[nH]c1ccc(Cl)cc12` (centres unmarked) [Carprofen], for which, in series [1], the “effect on progression of experimental OA” value is listed as “exhibit anti-OA effects”.

Take `CC1(C)Cc2c(-c3ccccc3)c(-c3ccc(Cl)cc3)c(CC(=O)O)n2C1` [ML3000, [2,2-dimethyl-6-(4-chlorophenyl)-7-phenyl-2,3-dihydro-1H-pyrrolizine-5yl]-acetic acid]: the “level of PGE2 in synovial fluid” value in the series with PGE2 is reported as “markedly decreased”. For the same compound, the figures for the “plasma ML3000 concentration maintained” value in series [2] (dose 2.5 mg/kg) and in series [2] (dose 5 mg/kg) were “above 100 ng/mL” and greater than 200 ng/mL, respectively. Also, the “reduction of size of cartilage lesions on tibial plateaus vs placebo” value in [3] (2.5 mg/kg/day, 8 weeks) is 45%; in series [3] (5 mg/kg/day, 8 weeks), 54%. The “reduction of size of cartilage lesions on femoral condyles vs placebo” value in [3] (2.5 mg/kg/day, 8 weeks, P<0.05) stood at 39%; in [3] (5 mg/kg/day, 8 weeks, P<0.04), 61%. In addition, the width of osteophytes came to 3.57±0.56 mm in [3] (2.5 mg/kg/day, 8 weeks) and 3.86±0.66 mm in [3] (5 mg/kg/day, 8 weeks). Besides, the “osteophytes present (share of condyles)” value in series [3] (2.5 mg/kg/day, 8 weeks) came out at 93%; in series [3] (5 mg/kg/day, 8 weeks), 86%. Also, the “macroscopic appearance of synovial membrane vs placebo” value in series [3] (ML3000-treated dogs, 8 weeks) was “thinner, contained fewer blood vessels, and the discoloration was less intense”. Besides, the “grade of cartilage lesions on tibial plateaus” value in [3] (both doses (2.5 and 5 mg/kg/day), scale 0-4) is listed as “significantly reduced”. For the same compound, the “grade of cartilage lesions on femoral condyles” value in series [3] (treated dogs (2.5 and 5 mg/kg/day), scale 0-4) is recorded as “did not reach statistical significance”. Further, the anti-inflammatory action entry (with rat adjuvant arthritis; in series [5]) was “potent anti-inflammatory action” throughout. Also, the “body weight during the study period” value in [4] is “no change in the body weight”. Moreover, the “LTB4 levels in cultured synovium” value with LTB4 was “statistically significant reduction”. Also, the “number of synovial lining cells staining positive for IL-1β” value with interleukin-1β (IL-1β) was “dose-dependent and significant decrease”. Moreover, in the series with collagenase-1 (MMP-1), the “chondrocyte cell score for collagenase-1” value is listed as “significant decrease”. Besides, the “villous hyperplasia of synovial membrane” value in series [6] (5 mg/kg/day) is “significant reduction”. In addition, in series [6] (5 mg/kg/day, Mankin scale 0-14), the “histologic severity of cartilage lesions on condyles vs placebo, significance” value is “statistical significance was obtained”. The “histologic severity of cartilage lesions on tibial plateaus” value in series [6] (2.5 and 5 mg/kg/day (P<0.002 and P<0.02), Mankin scale) is given as “statistically significant decrease”. Besides, the “histologic severity of cartilage lesions on condyles vs placebo” value in series [6] (ML3000-treated dogs, Mankin scale 0-14) is reported as “less severe”.

On to `O=C(O)Cc1ccccc1Nc1c(Cl)cccc1Cl` [diclofenac], for which the “effect on progression of experimental OA” value in series [1] is listed as “ineffective (10) or even demonstrated to accelerate cartilage damage”.

As to `COc1ccc2c(c1)c(CC(=O)O)c(C)n2C(=O)c1ccc(Cl)cc1` [indomethacin], in the series on knee OA patients, the “effect on progression of cartilage damage” value is listed as “even accelerated its progression”.

As to `CC(C(=O)O)c1ccc(C(=O)c2ccccc2)s1` (centres unmarked) [tiaprofenic acid], in the series on knee OA patients, the “effect on progression of cartilage damage” value was “could not retard the progression of cartilage damage”.

The values are drawn from patent US7425573B2, “Use of annellated pyrrole compounds in the treatment of articular cartilage or subchondral bone degeneration” (priority 2001, dated 2008).
